{"source": "patent US20250002843A1", "about": "“DERIVATION OF NAÏVE BOVINE EMBRYONIC STEM CELLS” (The Semex Alliance, priority 2021, published 2025)", "tested_on": "ZP-free bovine embryo", "test": "Bovine embryo attachment and outgrowth derivation (attachment, TE growth, ICM growth) in culture media", "assay_type": "cell-based", "settings": "for effect on derivation efficiency on substitution in t2iLGöY media: bovine IL-6 10 ng/ml for human LIF, CGP77675 2 uM for PD0325901", "procedure": "The protocol for coating was as follows: • 1. 4 drops of 50 μL of coating solution: 0.1% gelatin or different concentrations of EHS-ECM, provided as a 100× concentrated solution, were applied onto Nunc surface 35 mm^2 cell culture dish (see FIG. 1). • 2. Coated substrates were incubated in a humidified 5% CO2 incubator at 38.5° C. for 1 hour. • 3. After incubation, excess coating solution was removed, 50 uL of cell culture media was applied to the coated area, covered with 4 mL of mineral oil, and 50 ul of additional media was added into each drop. • 4. Media was allowed to equilibrate in a humidified 5% O2, 5% CO2 incubator at 38.5° C. for 2 hours. • 5. After ZP removal and adaptation of embryos, 1 embryo was placed into 1 micro culture drop to start outgrowth derivation. • 6. First attachment rate was determined at 48 hours of outgrowth culture and first media change was done right after first attachment determination. • 7. Attachment rate and outgrowth rate were evaluated every day and media were changed right after daily evaluation.\nThe protocol for generating LbL ECM coated substrate was as follows: • 1. 40 ul of 0.1% Gelatin type A (diluted with DMEM/F12 basal medium) was applied to the surface of a Nunc 35 mm^2 cell culture dish to make small drops. • 2. The dish was incubated in a humidified 5% CO2 incubator at 38.5° C. for 1 hour. • 3. After incubation, the gelatin solution was removed and 50 ul of DPBS with Ca^2+ and Mg^2+ was added to wash excess gelatin from drops, followed by removal using aspiration. The washing step was repeated 2 times more. • 4. 50 ul of 1×EHS-ECM was applied to the gelatin coated area and incubated in a humidified 5% CO2 incubator at 38.5° C. for 1 hour. • 5. After incubation, EHS-ECM solution was removed, and 50 ul of media was applied; drops were covered with 4 ml of mineral oil, and 50 ul of additional media was added into each drop. • 6. The media was allowed to equilibrate in 5% CO2 incubator for 2 hours.\n• 1. Thawing media and outgrowth media was mixed at a 1:1 ratio. • 2. After post-thaw recovery, embryos were washed twice in adaptation media (1:1 ratio of thawing media (e.g. embryo handling media and outgrowth media (e.g. DMEM))) before being put in the adaptation drop in the Dish #1 (FIG. 10). • 4. After 1 hour of adaptation, embryos were then washed four times by transferring to washing drops (outgrowth media) in the Dish #2. • 5. Embryos were then moved to the outgrowth media (DMEM) for plating. • 6. Adapted embryos were then plated into LbL coated micro drop.\nFBS (10091, Gibco™), Knock-out Serum Replacement (10828-10, Gibco™), Serum Replacement (S0638, Sigma), B27 supplement (17504-044, Gibco™), and N2 supplement (17502-048, Gibco™) were used for this test. Traditional mouse 2iL media (DMEM/F12+1% MEM non-essential amino acid+2 mM Glutamax+100 µM beta-mercaptoethanol+100 IU penicillin/streptomycin+growth factors/inhibitors including 3 µM CHIR99021, 1 μM PD0325901 and 100 ng/ml LIF) was used as a basal medium for the serum tests of 10% FBS and 20% KOSR, and 1×-, 2×-SR groups. t2iLGöY media (1:1 mixture of DMEM/F12 and neurobasal medium+1% MEM non-essential amino acid+2 mM Glutamax+50 μg/ml BSA, fraction V+100 μM beta-mercaptoethanol+100 IU penicillin/streptomycin+growth factors/inhibitors including 1 μM CHIR99021, 1 μM PD0325901, 10 μM Y27632, 2.5 μM Gö6983 and 10 ng/ml LIF) was used for the testing of N2B27 group. […]"}
{"molecule": "COc1cccc(-c2cn(-c3ccc(CCN4CCC(O)CC4)cc3)c3ncnc(N)c23)c1", "note": "[CGP77675]", "values": [{"measurement": "effect on derivation efficiency on substitution in t2iLGöY media", "value": "negative effect"}]}
{"molecule": "COc1ccc2c(c1)c(C1=C(c3c[nH]c4ccccc34)C(=O)NC1=O)cn2CCCN(C)C", "note": "[Gö6983]", "values": [{"measurement": "derivation efficiency on addition in t2iLGoY", "setting": "side-by-side with 2i, 2iLFk and NHSM media", "value": "improved"}]}
{"molecule": "O=C(NOC[C@H](O)CO)c1ccc(F)c(F)c1Nc1ccc(I)cc1F", "note": "[PD0325901]", "values": [{"measurement": "derivation efficiency when withdrawn from media", "setting": "MEK inhibitor withdrawn, embryo cavity formation", "value": "decreased"}]}
{"molecule": "insulin", "values": [{"measurement": "hypoblast formation during outgrowth culture", "setting": "addition of 20 μg/ml to the medium", "value": "not observed"}]}
{"molecule": "bovine IL-6: bovine IL-6, a member of the LIF superfamily (protein, UniProt P26892 30-208, looked up) Interleukin-6: GPLGEDFKNDTTPGRLLLTTPEKTEALIKRMVDKISAMRKEICEKNDECESSKETLAENKLNLPKMEEKDGCFQSGFNQAICLIRTTAGLLEYQIYLDYLQNEYEGNQENVRDLRKNIRTLIQILKQKIADLITTPATNTDLLEKMQSSNEWVKNAKIILILRNLENFLQFSLRAIRMK", "values": [{"measurement": "effect on derivation efficiency on substitution in t2iLGöY media", "value": "negative effect"}]}
